One molecule from patent publication US20220177462A1, “SUBSTITUTED HETEROCYCLIC AMIDE COMPOUND AND PREPARATION METHOD THEREFOR AND PHARMACEUTICAL USE THEREOF” (GENFLEET THERAPEUTICS (SHANGHAI) INC., priority 2019, published 2022) can be followed below.

Experiment [1] relates to L929 cells. Description: Inhibitory activity against programmed necroptosis of L929 cells induced by TNF-α. It counts as cell-based. Conditions: Mus musculus, 30 ng/ml murine TNF-α and 15 μM Z-VAD, 6 hours, CellTiter-Glo survival rate, read-out: L929 AbIC50. As to the method:
The compound was dissolve in DMSO to prepare a 10 mM stock solution. The stock solution was diluted in 3.16 folds with DMSO to a series of gradient concentrations. Then, the resultant solution was diluted in 100 folds with a culture medium to prepare a working solution. The L929 cells were inoculated in a 384-well plate at 10000/well. The compound at respective concentration was added to each of the wells, and was mixed with the cells homogeneously. 30 ng/ml murine TNF-α and 15 μM Z-VAD were added simultaneously to induce programmed necroptosis of the cells. The final concentration of DMSO was 2%. The cells were placed in an incubator at 37° C. and 5% CO2 for further culture of 6 hours. CellTiter-Glo reagent was used for detection. After adequate pyrolysis reaction, the chemiluminescence readout value was recorded by a microplate reader. The survival rate was calculated from the detection results using the equation as follows: SR (%)=(RLU compound −RLU blank)/(RLU high control−RLU blank)×100%. The survival rate was plotted against the final concentration of respective compound using a 4-parameter fitting to calculate the inhibitory IC50 of the compound against programmed necroptosis of cells induced by TNF-a.
(In general: Cellular ATP, detected with luciferase, serves as a proxy for viable cell number.)

Experiment [2] has as its target T1, RIPK1 enzyme (Homo sapiens, UniProt Q13546).
T1 construct: purchased Eurofins 16-022
T1 sequence (Q13546 1-671): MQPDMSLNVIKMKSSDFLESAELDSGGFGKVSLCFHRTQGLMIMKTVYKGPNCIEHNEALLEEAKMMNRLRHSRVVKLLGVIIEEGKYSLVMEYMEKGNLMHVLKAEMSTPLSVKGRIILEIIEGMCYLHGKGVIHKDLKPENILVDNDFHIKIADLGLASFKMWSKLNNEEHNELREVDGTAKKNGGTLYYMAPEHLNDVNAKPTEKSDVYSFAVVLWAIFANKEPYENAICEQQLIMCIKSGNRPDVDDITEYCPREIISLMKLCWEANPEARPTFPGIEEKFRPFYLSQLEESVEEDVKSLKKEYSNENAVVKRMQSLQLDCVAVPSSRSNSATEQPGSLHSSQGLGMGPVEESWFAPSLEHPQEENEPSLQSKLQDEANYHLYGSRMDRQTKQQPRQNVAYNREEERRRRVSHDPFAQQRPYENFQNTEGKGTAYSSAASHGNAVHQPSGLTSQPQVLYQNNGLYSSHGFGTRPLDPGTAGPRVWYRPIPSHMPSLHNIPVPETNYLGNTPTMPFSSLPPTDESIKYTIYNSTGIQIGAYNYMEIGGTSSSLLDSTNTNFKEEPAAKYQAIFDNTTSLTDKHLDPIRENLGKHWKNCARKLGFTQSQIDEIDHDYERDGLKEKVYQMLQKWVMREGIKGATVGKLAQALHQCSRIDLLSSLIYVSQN
Description: Inhibitory activity of the compounds against RIPK1 enzyme (33P-ATP, MBP substrate). It is filed as biochemical. Conditions: 36 nM RIPK1, 0.33 mg/ml MBP, 155 μM P33-labeled ATP, room temperature 2 hours. As to the method: The test compound was dissolved in DMSO to prepare a 10 mM stock solution. The stock solution was diluted in 3.16 folds with DMSO to a series of gradient concentrations. Then, the resultant solution was diluted in 50 folds with MOPS buffer pH 7.0 to prepare a working solution. The working solution was mixed with 36 nM RIPK1 (final concentration) and 0.33 mg/ml substrate MBP homogeneously. Thereafter, 10 mM magnesium ion and 155 μM P^33 isotopically labeled ATP were added for the reaction. The final concentration of DMSO was 2%. After the reaction was carried out at room temperature for 2 hours phosphoric acid was added to terminate the reaction. The final reaction system was tested using a liquid scintillation counter after treatment. The result obtained by subtracting a blank control from the tested value was converted to activity percentage as compared to the readout value of control group. The activity percentage was plotted against the final concentration of respective compound using a 4-parameter fitting to obtain the inhibitory IC50 of the compound against RIPK1 enzyme.

Experiment [3] relates to U937 cells. Description: Inhibitory activity against programmed necroptosis of U937 cells induced by TNF-α. It counts as cell-based, human. Conditions: 100 ng/ml human TNF-α and 25 μM Q-VD-Oph, 48 hours, CellTiter-Glo survival rate; read-out: U937 IC50. As to the method:
The U937 cell strain which was used in the following Testing Examples was derived from ATCC, No.: CRL-1593.2, batch No.: 63479999, culture medium: RPMI-1640+10% FBS.
The compound was dissolved in DMSO to prepare a 10 mM stock solution. The stock solution was diluted in 3.16 folds with DMSO to a series of gradient concentrations. Then, the resultant solution was diluted in 250 folds with a culture medium to prepare a working solution. The U937 cells were inoculated in a 384-well plate at 5000/well. The compound at respective concentration was added to each of the cells, and was mixed with the cells homogeneously. 100 ng/ml human TNF-α and 25 μM Q-VD-Oph were added simultaneously to induce programmed necroptosis of the cells. The final concentration of DMSO was 2%. The cells were placed in the incubator at 37° C. and 5% CO2 for further culture of 48 hours. Celltiter-Glo reagent was used for detection. After adequate pyrolysis reaction, the chemiluminescence readout value was recorded by a microplate reader. The survival rate was calculated from the detection results using the equation as follows: SR (%)=(RLU compound−RLU blank)/(RLU high control−RLU blank)×100%. The survival rate was plotted against the final concentration of respective compound using a 4-parameter fitting to calculate the inhibitory IC50 of the compound against programmed necroptosis of cells induced by TNF-a.

SMILES strings stand for the structures.

For the molecule `COc1ncc(-c2ccc3nc(N)sc3c2)cc1C(=O)NC(C)c1ccccc1OC(F)(F)F` (single isomer, unassigned) [Compound Z1-2], the IC50 was 6 nM in experiment [1], 14 nM in experiment [2] and 28 nM in experiment [3].
